Test results reported in ChEMBL document CHEMBL1201862, “PubChem BioAssay data set” (2004).
Calls of active or inactive are those of the source.

Assays:
Cytochrome P450 1A2 = molecular target: T1, Cytochrome P450 1A2 (Homo sapiens, UniProt P05177);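 also: PubChem cytochrome P450 panel assay, CYP1A2 panel member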
T1 sequence (P05177 whole entry): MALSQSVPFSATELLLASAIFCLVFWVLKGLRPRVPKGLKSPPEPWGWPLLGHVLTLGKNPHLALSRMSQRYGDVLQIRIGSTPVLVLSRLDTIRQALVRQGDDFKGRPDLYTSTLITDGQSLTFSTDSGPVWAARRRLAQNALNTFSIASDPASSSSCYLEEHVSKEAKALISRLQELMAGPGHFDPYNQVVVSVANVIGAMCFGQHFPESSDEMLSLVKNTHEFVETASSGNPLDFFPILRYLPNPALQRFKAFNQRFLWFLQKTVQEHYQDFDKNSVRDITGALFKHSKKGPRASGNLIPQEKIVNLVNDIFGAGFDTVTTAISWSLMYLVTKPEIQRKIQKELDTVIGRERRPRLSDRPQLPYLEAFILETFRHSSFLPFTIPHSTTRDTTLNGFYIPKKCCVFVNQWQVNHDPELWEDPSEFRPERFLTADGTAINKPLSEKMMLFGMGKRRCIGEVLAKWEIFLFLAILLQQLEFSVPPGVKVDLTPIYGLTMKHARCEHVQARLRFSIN

[1] = molecular target: Luciferin 4-monooxygenase (Photinus pyralis, UniProt P08659); experiment: firefly luciferase enzyme inhibitors, dose response, biochemical, luminescence (AID 1891)
Chain of Luciferin 4-monooxygenase (P08659 whole entry): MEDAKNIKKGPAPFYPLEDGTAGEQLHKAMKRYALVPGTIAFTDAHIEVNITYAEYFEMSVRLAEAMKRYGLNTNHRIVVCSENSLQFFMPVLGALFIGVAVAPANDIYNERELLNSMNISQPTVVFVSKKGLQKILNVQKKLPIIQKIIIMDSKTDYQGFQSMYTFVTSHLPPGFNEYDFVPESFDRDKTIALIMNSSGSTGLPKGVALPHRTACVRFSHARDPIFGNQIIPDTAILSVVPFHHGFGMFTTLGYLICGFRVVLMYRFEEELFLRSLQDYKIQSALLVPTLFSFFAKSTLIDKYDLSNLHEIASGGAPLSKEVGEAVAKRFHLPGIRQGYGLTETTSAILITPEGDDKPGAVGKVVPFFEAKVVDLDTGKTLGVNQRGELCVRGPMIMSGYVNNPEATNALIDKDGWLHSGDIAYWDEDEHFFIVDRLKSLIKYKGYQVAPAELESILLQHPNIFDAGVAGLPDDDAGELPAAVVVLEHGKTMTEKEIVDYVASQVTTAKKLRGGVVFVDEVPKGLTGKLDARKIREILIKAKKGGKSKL

[2] = Luminescence Cell-Based Dose Confirmation HTS to Identify Inhibitors of Platelet Dense Granule Release. [Related pubchem assays: 1663 (Primary HTS), 1678 (Summary of Project)]; format: functional
cells = format: functional
Protein skinhead-1 = molecular target: T2, Protein skinhead-1 (Caenorhabditis elegans, UniProt P34707); format: functional
T2 sequence (P34707 whole entry): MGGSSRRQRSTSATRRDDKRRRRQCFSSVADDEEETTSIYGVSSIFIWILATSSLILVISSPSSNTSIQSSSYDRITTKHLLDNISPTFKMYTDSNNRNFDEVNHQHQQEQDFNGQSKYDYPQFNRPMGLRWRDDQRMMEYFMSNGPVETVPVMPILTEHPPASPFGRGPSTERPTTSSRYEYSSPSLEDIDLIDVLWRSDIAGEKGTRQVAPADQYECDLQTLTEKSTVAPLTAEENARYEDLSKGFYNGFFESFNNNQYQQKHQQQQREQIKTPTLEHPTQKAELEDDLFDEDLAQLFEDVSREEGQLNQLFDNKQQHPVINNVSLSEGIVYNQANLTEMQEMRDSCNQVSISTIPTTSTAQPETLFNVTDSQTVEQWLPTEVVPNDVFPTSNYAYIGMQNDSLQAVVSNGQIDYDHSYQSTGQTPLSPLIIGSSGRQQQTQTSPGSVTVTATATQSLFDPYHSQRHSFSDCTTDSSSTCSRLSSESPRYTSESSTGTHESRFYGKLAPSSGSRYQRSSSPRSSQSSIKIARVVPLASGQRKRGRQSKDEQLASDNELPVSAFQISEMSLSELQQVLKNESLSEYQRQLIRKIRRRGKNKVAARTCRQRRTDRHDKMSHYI

[3] = growth suppression of beta-catenin-knockout colon cells, dose response, cell-based, HCT116, human colon tumor (AID 1045); format: functional;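 also: HCT116 colon tumor cells with beta catenin knocked out; cells exposed to compound for 60 hours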
[4] = molecular target: T3, Polyadenylate-binding protein 1 (Homo sapiens, UniProt P11940); experiment: PABP1 MLLE–PAM2 interaction inhibitors, dose response, miRNA deadenylation inhibitor project, biochemical, fluorescence polarization, Cy5-PAM2 peptide, secondary (AID 602260); format: functional; conditions: read-out: IC50_Mean
T3 sequence (P11940 whole entry): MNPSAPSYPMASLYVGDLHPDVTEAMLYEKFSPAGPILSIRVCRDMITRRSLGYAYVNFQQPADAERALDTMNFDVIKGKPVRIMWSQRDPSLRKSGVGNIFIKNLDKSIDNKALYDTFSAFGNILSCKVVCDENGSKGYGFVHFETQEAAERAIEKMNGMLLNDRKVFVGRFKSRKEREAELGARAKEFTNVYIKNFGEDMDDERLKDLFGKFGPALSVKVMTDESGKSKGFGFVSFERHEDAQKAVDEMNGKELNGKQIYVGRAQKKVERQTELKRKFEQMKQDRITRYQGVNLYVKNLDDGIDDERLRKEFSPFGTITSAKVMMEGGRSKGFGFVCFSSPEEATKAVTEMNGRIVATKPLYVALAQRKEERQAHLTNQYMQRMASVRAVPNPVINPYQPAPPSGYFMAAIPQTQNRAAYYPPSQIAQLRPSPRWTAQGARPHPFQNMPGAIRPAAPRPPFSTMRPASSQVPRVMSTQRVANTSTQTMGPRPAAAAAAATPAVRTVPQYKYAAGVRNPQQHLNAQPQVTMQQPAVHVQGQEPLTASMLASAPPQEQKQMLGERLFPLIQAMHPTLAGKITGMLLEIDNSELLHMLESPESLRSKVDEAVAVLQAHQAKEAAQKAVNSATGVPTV

[5] = growth suppression of PTEN-null colon cells, dose response, cell-based, HCT116 PTEN knockout (AID 1047); format: functional;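 also: HCT116 colon tumor cells with PTEN knocked out; cells exposed to compound for 60 hours before readout; potency for loss of cell viability measured by luminescence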
[6] = molecular target: T3, Polyadenylate-binding protein 1; experiment: PABP1 MLLE–PAM2 binding inhibitor potency, dose response, biochemical, fluorescence polarization, FITC-PAM2 peptide (AID 602259); format: functional; conditions: read-out: IC50_Mean
[7] = Luminescence Cell-Based Dose Confirmation HTS to Identify Activators of 5'UTR Stem-Loop Driven Alpha-Synuclein mRNA Translation in H4 Neuroglioblastoma Cells. [Related pubchem assays: 1829 (Project Summary), 1814 (Primary HTS)]; format: functional
[8] = Luminescence Cell-Based Dose Response HTS to Identify Activators of Luciferase Translation or Activity in H4 […] Cells. [Related pubchem assays: 1829 (Project Summary), 1814 (Primary HTS)]; format: functional
H4 = experiment: Luminescence Cell-Based Dose Response HTS to Identify Activators of 5'UTR Stem-Loop Driven Prion Protein mRNA Translation in H4 Neuroglioblastoma Cells. [Related pubchem assays: 1829 (Project Summary), 1814 (Primary HTS)]; format: functional; conditions: Homo sapiens
[9] = inhibitors of clade B AD8 Env fusion, dose response, cell-based, cherry-pick (AID 652062); format: functional;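 also: luciferase signal from cell-cell fusion driven by HIV-1 clade B AD8 Env; potency is for inhibitors of fusion seen as a drop in luminescence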
[10] = inhibitors of intracellular T. cruzi replication, confirmation, NIH3T3 host cells, beta-gal luminescence (AID 2044); format: functional, cell-based;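 also: intracellular parasites grown in NIH/3T3 mouse fibroblasts as host cells; luminescent beta-galactosidase reporter signal from transgenic T. cruzi replicating inside host cells; inhibitors lower the luminescence signal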
[11] = cytotoxicity toward NIH3T3 fibroblasts, dose response, counter-screen, cell-based, ATP luminescence, mouse fibroblasts (AID 2010); format: functional;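 also: cells exposed to compound for about 90 hours before reading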
Cytochrome P450 2C19 = Cytochrome P450 2C19 (Homo sapiens, UniProt P33261); experiment: Cytochrome panel assay with activity outcomes. Panel member name: p450-cyp2c19 Compounds with AC50 equal or less than 10 uM are considered active; format: functional
Chain of Cytochrome P450 2C19 (P33261 whole entry): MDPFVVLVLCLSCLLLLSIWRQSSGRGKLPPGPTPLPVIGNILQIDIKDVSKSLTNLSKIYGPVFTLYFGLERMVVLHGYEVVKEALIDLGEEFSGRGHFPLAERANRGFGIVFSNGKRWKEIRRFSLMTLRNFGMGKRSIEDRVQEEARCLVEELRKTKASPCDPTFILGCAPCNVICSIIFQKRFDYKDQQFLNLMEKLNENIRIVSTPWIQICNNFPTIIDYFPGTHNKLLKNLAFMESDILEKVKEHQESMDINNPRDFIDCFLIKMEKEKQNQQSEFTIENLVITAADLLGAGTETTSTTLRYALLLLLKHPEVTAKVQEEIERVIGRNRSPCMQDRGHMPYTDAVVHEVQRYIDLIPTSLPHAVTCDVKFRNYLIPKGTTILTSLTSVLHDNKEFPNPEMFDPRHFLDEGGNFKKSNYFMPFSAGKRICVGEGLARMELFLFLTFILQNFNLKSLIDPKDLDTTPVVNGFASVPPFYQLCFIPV

[12] = molecular target: T4, Heat shock factor protein 1 (Mus musculus, UniProt P38532); experiment: HSF1 potentiators in luciferase reporter cells, confirmation, cell-based, NIH3T3, luminescence, dose retest (AID 435004); format: functional;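 also: stress induced by proteasome inhibitor MG132 added 30 min after compound; luciferase reporter driven by HSF1 response element in NIH3T3 cells; actives raise luminescence as potentiators of the MG132 stress response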
T4 sequence (P38532 whole entry): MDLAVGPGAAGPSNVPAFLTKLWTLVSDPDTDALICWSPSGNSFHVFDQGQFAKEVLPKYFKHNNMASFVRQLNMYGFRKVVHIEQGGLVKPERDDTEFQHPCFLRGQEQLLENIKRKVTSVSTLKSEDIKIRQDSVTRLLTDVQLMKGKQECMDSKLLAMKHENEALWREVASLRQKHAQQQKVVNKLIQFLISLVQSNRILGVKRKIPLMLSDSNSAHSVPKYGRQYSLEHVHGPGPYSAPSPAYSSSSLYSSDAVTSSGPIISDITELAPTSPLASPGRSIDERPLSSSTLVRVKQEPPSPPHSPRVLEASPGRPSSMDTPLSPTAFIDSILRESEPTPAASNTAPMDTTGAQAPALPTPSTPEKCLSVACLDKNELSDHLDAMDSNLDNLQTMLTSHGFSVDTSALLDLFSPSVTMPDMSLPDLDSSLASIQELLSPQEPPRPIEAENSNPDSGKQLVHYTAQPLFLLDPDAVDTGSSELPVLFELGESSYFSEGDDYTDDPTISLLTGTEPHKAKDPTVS

Cytochrome P450 2D6 = Cytochrome P450 2D6 (Homo sapiens, UniProt P10635);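 also: CYP2D6 member of a cytochrome P450 panel assay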
Chain of Cytochrome P450 2D6 (P10635 whole entry): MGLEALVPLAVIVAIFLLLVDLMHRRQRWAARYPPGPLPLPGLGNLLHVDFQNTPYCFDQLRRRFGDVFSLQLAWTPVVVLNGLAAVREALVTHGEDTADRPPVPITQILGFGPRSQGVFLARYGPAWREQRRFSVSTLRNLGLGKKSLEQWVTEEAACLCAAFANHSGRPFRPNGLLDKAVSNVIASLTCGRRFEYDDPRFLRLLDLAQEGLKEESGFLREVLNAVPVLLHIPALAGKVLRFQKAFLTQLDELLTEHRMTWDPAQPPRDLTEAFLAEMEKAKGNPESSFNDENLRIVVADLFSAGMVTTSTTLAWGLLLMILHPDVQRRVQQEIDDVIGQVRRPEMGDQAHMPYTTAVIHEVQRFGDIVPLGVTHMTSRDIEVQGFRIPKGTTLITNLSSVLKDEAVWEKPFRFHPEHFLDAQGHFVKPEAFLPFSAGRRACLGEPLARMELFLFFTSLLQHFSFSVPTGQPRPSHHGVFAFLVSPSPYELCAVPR

Cytochrome P450 3A4 = Cytochrome P450 3A4 (Homo sapiens, UniProt P08684);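 also: CYP3A4 tested as one member of a cytochrome P450 panel screen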
Chain of Cytochrome P450 3A4 (P08684 whole entry): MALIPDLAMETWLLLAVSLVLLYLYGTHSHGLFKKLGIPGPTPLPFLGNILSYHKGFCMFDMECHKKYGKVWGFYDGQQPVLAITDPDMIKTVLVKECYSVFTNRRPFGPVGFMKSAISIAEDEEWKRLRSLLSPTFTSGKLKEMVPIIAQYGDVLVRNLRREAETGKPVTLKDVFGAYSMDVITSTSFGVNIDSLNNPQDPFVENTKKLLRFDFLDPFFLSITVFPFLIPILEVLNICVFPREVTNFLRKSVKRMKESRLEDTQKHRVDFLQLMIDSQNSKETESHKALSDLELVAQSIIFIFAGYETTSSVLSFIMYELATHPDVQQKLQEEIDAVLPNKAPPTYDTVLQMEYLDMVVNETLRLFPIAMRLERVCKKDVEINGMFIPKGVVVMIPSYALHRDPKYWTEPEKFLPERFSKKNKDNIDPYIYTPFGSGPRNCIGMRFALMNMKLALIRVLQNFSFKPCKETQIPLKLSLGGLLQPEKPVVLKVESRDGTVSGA

Cytochrome P450 2C9 = Cytochrome P450 2C9 (Homo sapiens, UniProt P11712)
Chain of Cytochrome P450 2C9 (P11712 whole entry): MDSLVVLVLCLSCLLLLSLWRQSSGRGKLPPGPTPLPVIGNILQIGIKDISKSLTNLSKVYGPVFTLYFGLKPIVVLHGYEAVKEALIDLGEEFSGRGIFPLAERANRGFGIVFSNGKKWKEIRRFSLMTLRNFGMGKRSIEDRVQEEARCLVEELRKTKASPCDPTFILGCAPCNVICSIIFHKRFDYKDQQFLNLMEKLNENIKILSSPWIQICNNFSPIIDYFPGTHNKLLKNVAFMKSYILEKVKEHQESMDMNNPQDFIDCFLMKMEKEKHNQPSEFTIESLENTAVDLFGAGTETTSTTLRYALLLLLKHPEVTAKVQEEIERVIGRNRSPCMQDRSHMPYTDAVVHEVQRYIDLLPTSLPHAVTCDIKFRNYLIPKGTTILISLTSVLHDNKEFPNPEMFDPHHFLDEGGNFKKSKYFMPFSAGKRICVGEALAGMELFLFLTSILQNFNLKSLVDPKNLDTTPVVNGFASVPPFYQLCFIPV

[13] = Luminescence Cell-Based Dose Response HTS to Identify Inhibitors of 5'UTR Stem-Loop Driven Prion Protein mRNA Translation in H4 Neuroglioblastoma Cells. [Related pubchem assays: 1827 (Project Summary), 1813 (Primary HTS)]; format: functional
[14] = inhibitors of SNCA 5'UTR-driven reporter translation, confirmation, H4 neuroglioma cells, luminescence (AID 1988); format: functional, cell-based
[15] = inhibitors of firefly luciferase expression or activity, dose response, H4 neuroglioma cells, luminescence (AID 1990); format: functional, cell-based

## O=C(CCNC(=O)Cn1cnc2ccccc2c1=O)NCC1COc2ccccc2O1 (stereo unspecified)
Cytochrome P450 1A2
  AC50: 0.01 µM (inconclusive)

## CCOC(=O)C1=C(C)N(c2ccc(C)cc2)C(=O)/C1=C\c1ccc(O)c(OC)c1
[1]
  EC50: > 112 µM (not active)
[2]
  EC50: > 112 µM (not active)

## CCCSc1cc(NCCOC(C)=O)c([N+](=O)[O-])c2nonc12
[1]
  EC50: > 112 µM (not active)
[2]
  EC50: > 112 µM (not active)

## CC(C)c1nnc(NC(=O)c2cc3cc(Br)ccc3oc2=O)s1
cells
  IC50: 0.66 µM (active)

## CSc1cccc(NC(=O)c2cc(S(=O)(=O)N3CCCC3)cn2C)c1
[1]
  EC50: > 112 µM (not active)
[2]
  EC50: > 112 µM (not active)

## FC(F)(F)c1cc(-c2ccccc2)nc(NC2CCCC2)n1
Protein skinhead-1
  IC50: > 100 µM (inactive)

## O=C(Cc1cccc2ccccc12)NC(NC(=S)Nc1ccccc1Cl)C(Cl)(Cl)Cl (stereo unspecified)
[3]
  EC50: 16.7 µM (active)
[4]
  IC50: > 66 µM (inactive)
[5]
  EC50: 15.2 µM (active)
[6]
  IC50: > 66 µM (inactive)

## CCc1ccc2nc(O)c(CN(Cc3nnnn3C3CCCC3)C3CCCCC3)cc2c1
[7]
  EC50: > 120 µM (not active)
[3]
  EC50: 19.7 µM (active)
[5]
  EC50: 18.8 µM (active)
[8]
  EC50: > 120 µM (not active)
H4
  EC50: > 120 µM (not active)

## CCOC(=O)c1ccc(NC(=O)c2cccc(S(=O)(=O)N3CCOCC3)c2)cc1
[3]
  EC50: 22 µM (active)
[5]
  EC50: 30.4 µM (active)

## O=C1[C@@H]2Cc3c([nH]c4ccccc34)[C@@H](c3ccccc3)N2C(=O)[C@@H]2Cc3c([nH]c4ccccc34)[C@@H](c3ccccc3)N12
[3]
  EC50: 9.96 µM (active)
[5]
  EC50: 9.58 µM (active)

## Cc1ccc(-c2nc(=S)c3c(n2CCN2CCOCC2)CC(C)(C)OC3)cc1
Protein skinhead-1
  IC50: > 100 µM (inactive)

## CC(=O)NC(CCS(C)(=O)=O)C(=O)Nc1cc(C)on1 (stereo unspecified)
[1]
  EC50: > 112 µM (not active)
[2]
  EC50: > 112 µM (not active)

## COC(=O)c1ccc(NC(=O)c2ccc(CN3CCOCC3)cc2)cc1
[9]
  AC50: 43.4 µM (active)

## COc1ccc2[nH]cc(CCNc3ncnc4ccc(-c5ccccc5CN(C)C)cc34)c2c1
Cytochrome P450 1A2
  AC50: 31.6 µM (inconclusive)

## COC(=O)[C@H](C)[C@H]1C[C@]1(C)[C@H](NC(=O)OCc1ccccc1)c1ccccc1
Cytochrome P450 1A2
  AC50: 15.8 µM (inconclusive)

## O=[N+]([O-])c1cc(CN2CCCC2)ccc1Sc1ccc(Cl)cc1
[10]
  EC50: 0.232 µM (active)
[11]
  EC50: 9.06 µM (active)
Protein skinhead-1
  IC50: 17.9 µM (active)

## O=C(CN1CCN(S(=O)(=O)c2ccc(Br)cc2)CC1)Nc1ccc2c(c1)OCO2
Protein skinhead-1
  IC50: > 100 µM (inactive)

## O=C(Nc1ccc(Cl)cc1)c1cnc(-c2ccccc2)nc1-c1ccccc1
[3]
  EC50: 6.45 µM (active)
Cytochrome P450 2C19; read-out: AC50
  AC50: 1 µM (inconclusive)
[5]
  EC50: 7.19 µM (active)

## SC1=Nc2ccc(Cl)cc2C(c2ccccc2)=NC1
cells
  IC50: > 50 µM (active)
[12]
  EC50: > 260 µM (inactive)

## COC(=O)[C@@]1(Cc2ccc(F)cc2)[C@H]2c3cc(C(=O)N(C)C)n(CCc4c[nH]c5ccc(OC)cc45)c3C[C@H]2CN1C(=O)c1ccccc1
Cytochrome P450 2C19; read-out: AC50
  AC50: 39.8 µM (inconclusive)
Cytochrome P450 1A2
  AC50: 12.6 µM (inconclusive)

## c1ccc(-c2nc3c4ccccc4ccn3c2CN2CCCCC2)cc1
[1]
  EC50: 14.8 µM (active)
[2]
  EC50: > 112 µM (not active)

## CCC(c1nnnn1CC1CCCO1)N(CCN1CCOCC1)Cc1cc2cc(C)ccc2nc1O (stereo unspecified)
Cytochrome P450 1A2
  AC50: 25.1 µM (inconclusive)

## COc1cccc(Cn2c(=O)c(-c3cn(C)c4ccccc34)nc3cnc(N4CCNCC4)nc32)c1
Cytochrome P450 2D6
  AC50: 39.8 µM (inconclusive)
Cytochrome P450 1A2
  AC50: 15.8 µM (inconclusive)
Cytochrome P450 3A4
  AC50: 15.8 µM (inconclusive)

## CN(C)C(=O)c1ccc(-c2nc(NCc3cccnc3)c3ccccc3n2)cc1
Cytochrome P450 2D6
  AC50: 39.8 µM (inconclusive)
Cytochrome P450 1A2
  AC50: 10 µM (inconclusive)

## O=C(NCC1CCCO1)c1ccc(NC(=O)c2cccc(Cl)c2)cc1 (stereo unspecified)
[1]
  EC50: > 112 µM (not active)
[2]
  EC50: > 112 µM (not active)

## Cc1c(C(=O)N2CCCCCC2)nnn1-c1nonc1N
Cytochrome P450 2D6
  AC50: 17.8 µM (inconclusive)
Cytochrome P450 2C9
  AC50: 14.1 µM (inconclusive)
Cytochrome P450 1A2
  AC50: 15.8 µM (inconclusive)

## Clc1ccc2oc(-c3ccccn3)nc2c1
Protein skinhead-1
  IC50: 35.9 µM (active)

## C(=C1c2ccccc2-c2ccccc21)c1ccccn1
Protein skinhead-1
  IC50: 59.4 µM (inactive)

## Oc1ccccc1CN1CCCC(N2CCN(c3cccc(C(F)(F)F)c3)CC2)C1 (stereo unspecified)
cells
  IC50: 22.9 µM (active)

## CC#CCCCC(=O)Nc1ccc(C(=O)O)cc1
Cytochrome P450 2C19
  AC50: inconclusive
Cytochrome P450 2C9
  AC50: 39.8 µM (inconclusive)
Cytochrome P450 1A2
  AC50: 28.2 µM (inconclusive)

## O=C(Nc1ccccc1F)C1CCCC1
Protein skinhead-1
  IC50: > 100 µM (inactive)

## C[C@@H]1CN([C@@H](C)CO)C(=O)c2cc(C3=CCCC3)cnc2O[C@@H]1CN(C)Cc1ccc(C(=O)O)cc1
[9]
  AC50: 10.9 µM (active)

## OCC/N=C1\CCCc2c1[nH]c1ccc(Br)cc21
[13]
  EC50: 48.8 µM (active)
Cytochrome P450 2D6
  AC50: 1 µM (inconclusive)
Cytochrome P450 2C9
  AC50: 7.08 µM (inconclusive)
Cytochrome P450 1A2
  AC50: 0.251 µM (inconclusive)
[14]
  EC50: 8.41 µM (active)
[15]
  EC50: < 0.1 µM (active)

## COc1cccc(C(=O)N/N=C/c2c[nH]nc2-c2ccc(OC)cc2OC)c1
[1]
  EC50: > 112 µM (not active)
[2]
  EC50: > 112 µM (not active)

## CC1(C)CCC(C)(C)c2cc(C(=O)Nc3ccc(C(=O)O)cc3)ccc21
Cytochrome P450 2C19; read-out: AC50
  AC50: 31.6 µM (inconclusive)
Cytochrome P450 2C9
  AC50: 15.8 µM (inconclusive)
Cytochrome P450 1A2
  AC50: 31.6 µM (inconclusive)
